Source: patent US20250084094A1 (Vertex Pharmaceuticals Incorporated, priority 2021, published 2025)

Each compound was assayed against T1, APOL1 (Homo sapiens, UniProt O14791) (assay: MultiTox-Fluor Multiplex Cytotoxicity Assay in tet-inducible APOL1 T-REx-HEK293 cells). Conditions: tet-inducible transgenic APOL1 T-REx-HEK293 cell lines, 50 ng/mL tet, 24 hours, ratio of dead to live cells; read-out: IP50 (nM) (i.e., IC50 for cell proliferation).
T1 sequence (O14791 1-398 S342G/I384M): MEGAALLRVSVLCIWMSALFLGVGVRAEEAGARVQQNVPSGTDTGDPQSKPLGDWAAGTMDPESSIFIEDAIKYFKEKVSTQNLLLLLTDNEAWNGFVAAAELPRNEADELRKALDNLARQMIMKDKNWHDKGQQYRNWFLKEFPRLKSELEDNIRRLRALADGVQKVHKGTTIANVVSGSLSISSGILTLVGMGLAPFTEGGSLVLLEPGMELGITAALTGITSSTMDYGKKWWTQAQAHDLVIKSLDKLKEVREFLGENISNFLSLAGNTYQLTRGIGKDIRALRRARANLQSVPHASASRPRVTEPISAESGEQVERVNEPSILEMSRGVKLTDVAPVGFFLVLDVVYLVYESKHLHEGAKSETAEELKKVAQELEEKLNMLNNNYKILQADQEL
Type: cell-based
Protocol: The MultiTox-Fluor Multiplex Cytotoxicity Assay is a single-reagent-addition, homogeneous, fluorescence assay that measures the number of live and dead cells simultaneously in culture wells. The assay measures cell viability and cytotoxicity by detecting two distinct protease activities. The live-cell protease activity is restricted to intact viable cells and is measured using a fluorogenic, cell-permeant peptide glycyl-phenylalanylamino fluorocoumarin (GF-AFC) substrate. The substrate enters intact cells, where it is cleaved to generate a fluorescent signal proportional to the number of living cells. […] A second, cell-impermeant, fluorogenic peptide substrate (bis-AAF-R110 Substrate) is used to measure dead-cell protease that has been released from cells that have lost membrane integrity. A ratio of dead to live cells is used to normalize data.
Briefly, the tet-inducible transgenic APOL1 T-REx-HEK293 cell lines were incubated with 50 ng/mL tet to induce APOL1 in the presence of 3-(2-(4-fluorophenyl)-1H-indol-3-yl)-N-((3S,4R)-4-hydroxy-2-oxopyrrolidin-3-yl)propenamide at 10.03, 3.24, 1.13, 0.356, 0.129, 0.042, 0.129, 0.0045, 0.0015, 0.0005 μM in duplicate for 24 hours in a humidified 37° C. incubator. The MultiTox reagent was added to each well and placed back in the incubator for an additional 30 minutes. The plate was read on the EnVision plate reader. A ratio of dead to live cells was used to normalize, and data was imported, analyzed, and fit using Genedata Screener (Basel, Switzerland) software. Data was normalized using percent of control, no tet (100% viability), and 50 ng/mL tet treated (0% viability),and fit using Smart Fit. The reagents, methods, and complete protocol for the MultiTox assay are described below.
Human embryonic kidney (HEK293) cell lines containing a tet-inducible expression system (T-REx™; Invitrogen, Carlsbad, CA) and Adeno-associated virus site 1 pAAVS1-Puro-APOL1 G0 or pAAVS1-Puro-APOL1 G1 or pAAVS1-Puro-APOL1 G2 Clones G0 DC2.13, Gi DC3.25, and G2 DC4.44 were grown in a T-225 flask at ˜90% confluency in cell growth media (DMEM, 10% Tet-free FBS, 2 mM L-glutamine, 100 Units/mL penicillin-streptomycin, 5 μg/mL blasticidin S HCl, 1 μg/mL puromycin dihydrochloride). Cells were washed with DPBS and then trypsinized to dissociate from the flask. Media was used to quench the trypsin, cells were then pelleted at 200 g and resuspended in fresh cell assay media (DMEM, 2% Tet-free FBS, 2 mM L-glutamine, 100 Units/mL penicillin-streptomycin). Cells were counted and diluted to 1.17×10^6 cells/mL. 20 μL of cells (23,400/well) were dispensed in every well of a 384-well Poly-D-Lysine coated plate using the Multidrop dispenser. The plates were then incubated at room temperature for one hour.
Tetracycline is needed to induce APOL1 expression. 1 mg/mL tet stock in water was diluted to 250 ng/mL (5×) in cell assay media. 60 μL of cell assay media (no tet control) was dispensed in columns 1 and 24, and 60 μL of 5× tet in 384-PP-round bottom plate was dispensed in columns 2 to 23 with the Multidrop dispenser.
Assay ready plates from the Global Compound Archive were ordered using template 384_APOLICell_DR10n2_50 uM_v3. Compounds were dispensed at 200 nL in DMSO. The final top concentration was 10 μM with a 10 point 3-fold dilution in duplicate in the MultiTox assay.
20 μL was transferred from the 5× tet plate to the ARP and mixed, then 5 μL of 5× tet and the compounds were transferred to the cell plate and mixed using the Bravo. The cell plate was placed in the humidified 37° C. 5% CO2 incubator for 24 hours.
The MultiTox-Fluor Multiplex Cytotoxicity Assay was performed in accordance with the manufacturer's protocol. After cells were incubated with tet and compound for 24 hours, 25 μL of 1x MultiTox reagent was added to each well using the Multidrop dispenser; the plates were placed on a plate shaker (600 rpm) for 2 minutes, then centrifuged briefly and placed back in the 37° C. incubator for 30 minutes. […]
`C[C@H]1CC2(C[C@@H](c3cn(C)nn3)N1)OC(C(N)=O)c1cc(Cl)ccc12` (single isomer, unassigned) [Compound 40, (2′S,6′S)-6-chloro-2′-methyl-6′-(1-methyltriazol-4-yl)spiro[1H-isobenzofuran-3,4′-piperidine]-1-carboxamide] showed an IC50 of 50 to 500 nM. In the case of `C[C@H]1CC2(C[C@@H](c3cn(C)nn3)N1)OC(C(N)=O)c1ccc(Cl)cc12` (single isomer, unassigned) [Compound 42, (2′S,6′S)-5-chloro-2′-methyl-6′-(1-methyltriazol-4-yl)spiro[1H-isobenzofuran-3,4′-piperidine]-1-carboxamide], the IC50 is reported as 50 to 500 nM. For `C[C@H]1C[C@@]2(C[C@@H](c3cn(C)nn3)N1)OCCc1cc(O)c(Cl)cc12` [Compound 1], the IC50 was > 500 nM. With `C[C@H]1C[C@@]2(C[C@@H](c3cn(C)nn3)N1)OCCc1ccc(Cl)c(O)c12` [Compound 2] the IC50 was < 50 nM. `C[C@H]1C[C@@]2(C[C@@H](c3cnn(CCS(C)(=O)=O)c3)N1)OCCc1cc(O)c(Cl)cc12` [Compound 3] was tested, and the IC50 was > 500 nM. `C[C@H]1C[C@@]2(C[C@@H](c3ccn(CCS(C)(=O)=O)c3)N1)OCCc1ccc(Cl)c(O)c12` [Compound 4] was tested, and the IC50 was 50 to 500 nM. With `COc1ccc2c(c1)CCO[C@@]21C[C@@H](c2cn(C)nn2)N[C@@H](C)C1` [Compound 5] the IC50 was < 50 nM. `COc1cccc2c1[C@]1(C[C@@H](c3cn(C)nn3)N[C@@H](C)C1)OCC2` [Compound 6] was tested, and the IC50 was > 500 nM. `C[C@H]1C[C@@]2(C[C@@H](c3cn(C)nn3)N1)OCCc1cc(O)ccc12` [Compound 7] showed an IC50 of 50 to 500 nM. With `C[C@H]1C[C@@]2(C[C@@H](c3cn(C)nn3)N1)OCCc1cccc(O)c12` [Compound 8] the IC50 was 50 to 500 nM. `C[C@H]1C[C@@]2(C[C@@H](c3cn(C)nn3)N1)OCCc1cc(Br)ccc12` [Compound 9] was tested, and the IC50 was < 50 nM. With `C[C@H]1C[C@@]2(C[C@@H](c3cn(C)nn3)N1)OCCc1ccc(Cl)cc12` [Compound 10] the IC50 was < 50 nM. With `C[C@H]1C[C@@]2(C[C@@H](c3cn(C)nn3)N1)OCCc1ccc(C#N)cc12` [Compound 11] the IC50 was 50 to 500 nM. With `C[C@H]1C[C@@]2(C[C@@H](c3cn(C)nn3)N1)OCCc1ccccc12` [Compound 12] the IC50 was < 50 nM. In the case of `CCc1ccc2c(c1)[C@]1(C[C@@H](c3cn(C)nn3)N[C@@H](C)C1)OCC2` [Compound 13, (1S,2′S,6′S)-7-ethyl-2′-methyl-6′-(1-methyl-1H-1,2,3-triazol-4-yl)spiro[isochromane-1,4′-piperidine]], the IC50 is reported as < 50 nM. In the case of `C[C@H]1C[C@@]2(C[C@@H](c3cn(C)nn3)N1)OCCc1cc(OS(=O)(=O)C(F)(F)F)ccc12` [Compound 14], the IC50 is reported as 50 to 500 nM. `C[C@H]1C[C@@]2(C[C@@H](c3cn(C)nn3)N1)OCCc1cc(Cl)ccc12` [Compound 15] was tested, and the IC50 was < 50 nM. In the case of `Cc1ccc2c(c1)CCO[C@@]21C[C@@H](c2cn(C)nn2)N[C@@H](C)C1` [Compound 16], the IC50 is reported as < 50 nM. With `CCc1ccc2c(c1)CCO[C@@]21C[C@@H](c2cn(C)nn2)N[C@@H](C)C1` [Compound 17] the IC50 was < 50 nM. With `CC(C)c1ccc2c(c1)CCO[C@@]21C[C@@H](c2cn(C)nn2)N[C@@H](C)C1` [Compound 18] the IC50 was < 50 nM. `COC(=O)c1ccc2c(c1)CCO[C@@]21C[C@@H](c2cn(C)nn2)N[C@@H](C)C1` [Compound 19] was tested, and the IC50 was > 500 nM. Work on `C[C@H]1C[C@@]2(C[C@@H](c3cn(C)nn3)N1)OCCc1cc(C(C)(C)O)ccc12` [Compound 20] yielded an IC50 of 50 to 500 nM. Compound `C[C@H]1C[C@@]2(C[C@@H](c3cn(C)nn3)N1)OCCc1cc(C#N)ccc12` [Compound 21] has an IC50 of 50 to 500 nM. For `C[C@H]1C[C@@]2(C[C@@H](c3cn(C)nn3)N1)OCCc1cc(CO)ccc12` [Compound 22], the IC50 was > 500 nM. `C[C@H]1C[C@@]2(C[C@@H](c3cn(C)nn3)N1)OCCc1cc(C(F)(F)F)ccc12` [Compound 23] was tested, and the IC50 was < 50 nM. In the case of `CC1CC2(CC(c3cnn(CCS(C)(=O)=O)c3)N1)OCCc1ccc(Cl)cc12` (stereo not shown) [Compound 24], the IC50 is reported as 50 to 500 nM. `C[C@H]1C[C@@]2(C[C@@H](c3cn(C)nn3)N1)OC[C@@H](O)c1cc(Cl)ccc12` [Compound 25] was tested, and the IC50 was < 50 nM. For `C[C@H]1C[C@@]2(C[C@@H](c3cn(C)nn3)N1)OC[C@H](O)c1cc(Cl)ccc12` [Compound 26], the IC50 was < 50 nM. For `C[C@H]1C[C@@]2(C[C@@H](c3cn(C)nn3)N1)OC[C@@H](O)c1cc(C(F)(F)F)ccc12` [Compound 27, (1S,2′S,4S,6′S)-2′-methyl-6′-(1-methyl-1H-1,2,3-triazol-4-yl)-6-(trifluoromethyl)spiro[isochromane-1,4′-piperidin]-4-ol], the IC50 was < 50 nM. In the case of `C[C@H]1C[C@@]2(C[C@@H](c3cn(C)nn3)N1)OC[C@H](O)c1cc(C(F)(F)F)ccc12` [Compound 28, (1S,2′S,4R,6′S)-2′-methyl-6′-(1-methyl-1H-1,2,3-triazol-4-yl)-6-(trifluoromethyl)spiro[isochromane-1,4′-piperidin]-4-ol], the IC50 is reported as < 50 nM. `C[C@H]1C[C@@]2(C[C@@H](c3cn(C)nn3)N1)OCC(O)c1ccc(Cl)cc12` (stereo partly shown) [Compound 29] was tested, and the IC50 was 50 to 500 nM. `C[C@H]1C[C@@]2(C[C@@H](c3cn(C)nn3)N1)OCC(O)c1ccc(Cl)cc12` (stereo partly drawn) [Compound 30, (1S,2′S,6′S)-7-chloro-2′-methyl-6′-(1-methyl-1H-1,2,3-triazol-4-yl)spiro[isochromane-1,4′-piperidin]-4-ol] was tested, and the IC50 was 50 to 500 nM. In the case of `C[C@H]1C[C@]2(C[C@@H](c3cn(C)nn3)N1)C(=O)Nc1ccccc12` [Compound 31, (2′S,3R,6′S)-2′-methyl-6′-(1-methyltriazol-4-yl)spiro[indoline-3,4′-piperidine]-2-one], the IC50 is reported as > 500 nM. `C[C@H]1C[C@@]2(C[C@@H](c3cn(C)nn3)N1)C(=O)Nc1ccccc12` [Compound 32, (2′S,3S,6′S)-2′-methyl-6′-(1-methyltriazol-4-yl)spiro[indoline-3,4′-piperidine]-2-one] was tested, and the IC50 was < 50 nM. With `Cc1ccc2c(c1)NC(=O)[C@@]21C[C@@H](c2cn(C)nn2)N[C@@H](C)C1` [Compound 33, (2′S,3S,6′S)-2′,6-dimethyl-6′-(1-methyltriazol-4-yl)spiro[indoline-3,4′-piperidine]-2-one] the IC50 was < 50 nM. `Cc1ccc2c(c1)[C@]1(C[C@@H](c3cn(C)nn3)N[C@@H](C)C1)C(=O)N2` [Compound 34, (2′S,3S,6′S)-2′,5-dimethyl-6′-(1-methyltriazol-4-yl)spiro[indoline-3,4′-piperidine]-2-one] was tested, and the IC50 was < 50 nM. `C[C@H]1C[C@@]2(C[C@@H](c3cn(C)nn3)N1)C(=O)Nc1ccc(Cl)cc12` [Compound 35, (2′S,3S,6′S)-5-chloro-2′-methyl-6′-(1-methyltriazol-4-yl)spiro[indoline-3,4′-piperidine]-2-one] was tested, and the IC50 was < 50 nM.
